Activity calls are given as the source filed them. The calls are words filed in the database; no cut-off is given here.
Columns and labels:
[1] = Cmax in C57BL/6 mouse at 20 mg/kg, po; assay type: ADME, organism-based; set-up: dose 20 mg/kg, route oral; settings: in vivo
[2] = biological target: T1, Peroxisome proliferator-activated receptor alpha (Homo sapiens, UniProt Q07869); assay: Activity at human PPAR alpha by cell-based transactivation assay
T1 sequence (Q07869 whole entry): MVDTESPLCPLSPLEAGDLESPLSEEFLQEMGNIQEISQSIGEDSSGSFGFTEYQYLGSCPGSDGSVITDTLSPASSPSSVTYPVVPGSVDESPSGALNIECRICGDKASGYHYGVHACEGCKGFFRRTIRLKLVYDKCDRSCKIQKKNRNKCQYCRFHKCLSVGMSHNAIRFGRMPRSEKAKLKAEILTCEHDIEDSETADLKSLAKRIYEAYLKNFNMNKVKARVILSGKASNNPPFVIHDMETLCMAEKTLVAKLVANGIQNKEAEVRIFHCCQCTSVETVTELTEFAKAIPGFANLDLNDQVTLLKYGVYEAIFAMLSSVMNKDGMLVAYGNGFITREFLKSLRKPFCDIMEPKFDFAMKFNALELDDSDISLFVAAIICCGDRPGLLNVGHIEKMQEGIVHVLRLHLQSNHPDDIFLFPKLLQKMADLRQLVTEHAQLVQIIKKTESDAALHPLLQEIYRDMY

[3] = biological target: T2, Peroxisome proliferator-activated receptor gamma (Homo sapiens, UniProt P37231); assay: Activity at human PPAR gamma by cell-based transactivation assay
T2 sequence (P37231 whole entry): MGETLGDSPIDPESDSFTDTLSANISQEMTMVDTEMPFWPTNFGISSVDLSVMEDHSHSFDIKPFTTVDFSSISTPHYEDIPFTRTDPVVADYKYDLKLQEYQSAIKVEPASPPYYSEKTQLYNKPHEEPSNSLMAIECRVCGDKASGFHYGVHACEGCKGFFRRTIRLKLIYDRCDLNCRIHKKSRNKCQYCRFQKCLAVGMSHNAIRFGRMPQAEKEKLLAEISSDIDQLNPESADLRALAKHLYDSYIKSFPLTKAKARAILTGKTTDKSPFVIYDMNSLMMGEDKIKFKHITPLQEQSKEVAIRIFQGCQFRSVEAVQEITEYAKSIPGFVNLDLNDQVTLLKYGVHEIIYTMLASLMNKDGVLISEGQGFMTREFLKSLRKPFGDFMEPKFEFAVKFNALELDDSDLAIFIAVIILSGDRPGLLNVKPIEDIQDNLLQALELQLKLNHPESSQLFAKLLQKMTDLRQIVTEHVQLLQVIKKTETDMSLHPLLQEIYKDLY

[4] = Half life in C57BL/6 mouse at 20 mg/kg, po; assay type: ADME, organism-based; set-up: dose 20 mg/kg, route oral; settings: in vivo
[5] = Stability in mouse liver microsomes; assay type: ADME, Microsome
Liver microsomes [6] = assay: Stability in human liver microsomes; assay type: ADME, Microsome
[7] = biological target: T3, Peroxisome proliferator-activated receptor delta (Homo sapiens, UniProt Q03181); assay: Activity at human PPAR delta by cell-based transactivation assay
T3 sequence (Q03181 whole entry): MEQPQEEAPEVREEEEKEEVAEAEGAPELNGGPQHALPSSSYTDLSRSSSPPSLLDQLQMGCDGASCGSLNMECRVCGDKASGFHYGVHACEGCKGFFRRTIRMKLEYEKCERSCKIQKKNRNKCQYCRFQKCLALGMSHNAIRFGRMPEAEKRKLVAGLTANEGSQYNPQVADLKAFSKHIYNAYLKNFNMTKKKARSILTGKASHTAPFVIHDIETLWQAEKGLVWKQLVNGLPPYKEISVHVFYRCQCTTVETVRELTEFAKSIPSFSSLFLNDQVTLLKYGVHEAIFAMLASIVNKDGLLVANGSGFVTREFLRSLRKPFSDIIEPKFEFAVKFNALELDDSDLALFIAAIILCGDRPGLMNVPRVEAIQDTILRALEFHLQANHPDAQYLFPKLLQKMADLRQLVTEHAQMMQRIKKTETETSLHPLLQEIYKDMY

Liver microsomes [8] = assay: Stability in rat liver microsomes; assay type: ADME, Microsome
Mus musculus [9] = assay: Regulation of ApoAIV gene expression in C57BL/6 mouse jejunum at 10 mg/kg, po; assay type: functional, organism-based; set-up: dose 10 mg/kg
Mus musculus [10] = assay: Regulation of PDK4 gene expression in C57BL/6 mouse skeletal muscle at 10 mg/kg, po; assay type: functional, organism-based; set-up: dose 10 mg/kg; settings: Muscle tissue
Mus musculus [11] = assay: Regulation of UCP3 gene expression in C57BL/6 mouse skeletal muscle at 10 mg/kg, po; assay type: functional, organism-based; set-up: dose 10 mg/kg; settings: Muscle tissue

Cc1cc(-c2noc(-c3ccccc3)c2C(=O)NCCOc2ccc(Cl)cc2Cl)ccc1OCC(=O)O
Cmax [1]: < 300 nM | EC50 [2]: > 10 µM | EC50 [3]: > 10 µM | half-life [4]: < 0.5 h | Stability [5]: Stable | Stability (Liver microsomes [6]): Stable | EC50 [7]: 0.2 µM | Stability (Liver microsomes [8]): Stable

O=C(O)Cc1cccc(-c2noc(-c3ccco3)c2C(=O)NCCOc2ccc(Cl)cc2Cl)c1
Cmax [1]: < 300 nM | EC50 [2]: > 10 µM | EC50 [3]: > 10 µM | half-life [4]: < 0.5 h | Stability [5]: Stable | Stability (Liver microsomes [6]): Stable | EC50 [7]: 0.09 µM | Stability (Liver microsomes [8]): Stable

CC(C)c1onc(-c2cccc(CC(=O)O)c2)c1C(=O)NCCOc1ccc(Cl)cc1Cl
EC50 [2]: > 10 µM | EC50 [3]: > 10 µM | Stability [5]: Stable | Stability (Liver microsomes [6]): Stable | EC50 [7]: 1.07 µM | Stability (Liver microsomes [8]): Stable

O=C(O)Cc1ccc(OCc2noc(-c3ccccc3)c2C(=O)NCCOc2ccc(Cl)cc2Cl)c(Cl)c1
EC50 [2]: > 10 µM | EC50 [3]: > 10 µM | Stability [5]: Stable | Stability (Liver microsomes [6]): Stable | EC50 [7]: > 10 µM | Stability (Liver microsomes [8]): Stable

O=C(O)Cc1ccc(-c2noc(-c3ccccc3)c2C(=O)NCCOc2ccc(Cl)cc2Cl)c(Cl)c1
Cmax [1]: < 300 nM | EC50 [2]: > 10 µM | EC50 [3]: > 10 µM | half-life [4]: < 0.5 h | Stability [5]: Stable | Stability (Liver microsomes [6]): Stable | Stability (Liver microsomes [8]): Stable

O=C(O)CCc1cccc(-c2noc(-c3ccccc3)c2C(=O)NCCOc2ccc(Cl)cc2Cl)c1
EC50 [2]: > 10 µM | EC50 [3]: > 10 µM | Stability [5]: Stable | Stability (Liver microsomes [6]): Stable | EC50 [7]: 0.97 µM | Stability (Liver microsomes [8]): Stable

O=C(O)Cc1cccc(-c2noc(-c3ccccc3)c2C(=O)NCCOc2ccc(Cl)cc2Cl)c1
Cmax [1]: 5100 nM | Activity (Mus musculus [9]): Active | EC50 [2]: > 10 µM | EC50 [3]: > 10 µM | half-life [4]: 3.1 h | Stability [5]: Stable | Stability (Liver microsomes [6]): Stable | EC50 [7]: 0.07 µM | Stability (Liver microsomes [8]): Stable | Activity (Mus musculus [10]): Active | Activity (Mus musculus [11]): Active

O=C(O)Cc1cccc(-c2noc(-c3ccccc3Cl)c2C(=O)NCCOc2ccc(Cl)cc2Cl)c1
Cmax [1]: 5600 nM | EC50 [2]: > 10 µM | EC50 [3]: > 10 µM | half-life [4]: 1.1 h | Stability [5]: Stable | Stability (Liver microsomes [6]): Stable | EC50 [7]: 0.06 µM | Stability (Liver microsomes [8]): Stable

O=C(O)c1ccc(-c2noc(-c3ccccc3)c2C(=O)NCCOc2ccc(Cl)cc2Cl)cc1
EC50 [2]: > 10 µM | EC50 [3]: > 10 µM | Stability [5]: Stable | Stability (Liver microsomes [6]): Stable | EC50 [7]: > 10 µM | Stability (Liver microsomes [8]): Stable

Cc1ccccc1-c1onc(-c2cccc(CC(=O)O)c2)c1C(=O)NCCOc1ccc(Cl)cc1Cl
Cmax [1]: 1900 nM | EC50 [2]: > 10 µM | EC50 [3]: > 10 µM | half-life [4]: 1.5 h | Stability [5]: Stable | Stability (Liver microsomes [6]): Stable | EC50 [7]: 0.05 µM | Stability (Liver microsomes [8]): Stable

COc1ccc(CC(=O)O)cc1-c1noc(-c2ccccc2)c1C(=O)NCCOc1ccc(Cl)cc1Cl
EC50 [2]: > 10 µM | EC50 [3]: > 10 µM | Stability [5]: Stable | Stability (Liver microsomes [6]): Stable | EC50 [7]: 0.56 µM | Stability (Liver microsomes [8]): Stable

O=C(O)Cc1ccc(-c2noc(-c3ccccc3)c2C(=O)NCCOc2ccc(Cl)cc2Cl)cc1
EC50 [2]: > 10 µM | EC50 [3]: > 10 µM | Stability [5]: Stable | Stability (Liver microsomes [6]): Stable | EC50 [7]: 0.72 µM | Stability (Liver microsomes [8]): Stable
